Patent US20090018194A1, “Use of antimicrobial agents derived from alliaceous plants for the prevention and control of crop diseases, post-harvest rot and as environmental disinifectant products” (DMC Research Center, S.L., priority 2007, published 2009)

Key:
[1] = tested on: Geotrichum candidum CECT 1902; experiment: agar diffusion test, commercial phytosanitaries; type: cell-based; settings: incl. 6 mm disc
[2] = tested on: Penicillium italicum CECT 2294; experiment: agar diffusion test with impregnated cellulose discs; type: cell-based; settings: incl. 6 mm disc
[3] = tested on: Trichoderma aureoviride CECT 20102; experiment: agar diffusion test, commercial phytosanitaries; type: cell-based; settings: incl. 6 mm disc
[4] = tested on: Rhizopus stolonifer ATCC 24862; experiment: agar diffusion test, commercial phytosanitaries; type: cell-based; settings: incl. 6 mm disc
[5] = tested on: pears (Decana and Flor de Invierno varieties); experiment: phytotoxicity on treated pears; settings: 450 ppm
Penicillium expansum [6] = experiment: post-harvest rotting of inoculated apples, drencher treatment; type: in vivo; settings: 450 ppm, 15 days of refrigeration at 5-6° C.
Protocol: (§1) The effectiveness of the active principle PTS (in various individual doses) was studied in the control of post-harvest rotting of pears and apples caused by the fungi Botrytis cinerea and Penicillium expansum, the principal agents of diseases in these fruits. These phytopathogens can appear in fruit being stored in a cold room and, once in the processing plant and in a later phase, form colonies and are transferred from one fruit to another by contact. The study was performed by means of a controlled inoculation test to ensure a high percentage of affected fruits, and to guarantee that this level of infection is with certainty caused by these pathogens, thereby making it possible to detect and evaluate significant differences between the different treatments. […] To perform the controlled inoculation, wild strains of Botrytris cinerea and Penicillium expansum were used which were isolated in fruit and vegetable processing plants. […] After the time indicated above had passed, the various post-harvest treatments were carried out by means of […] 25° C. for 60 seconds.

Botrytis cinerea [7] = experiment: as above; type: in vivo; settings: 450 ppm, 15 days of refrigeration at 5-6° C.
Protocol: as §1

Penicillium expansum [8] = experiment: post-harvest rotting of inoculated pears, drencher treatment; type: in vivo; settings: 450 ppm, 15 days of refrigeration at 5-6° C.
Protocol: as §1

Botrytis cinerea [9] = experiment: as above; type: in vivo; settings: 450 ppm, 15 days of refrigeration at 5-6° C.
Protocol: as §1

[10] = tested on: apples (Golden Delicious and Red Chief varieties); experiment: phytotoxicity on treated apples; settings: 450 ppm

Compound	diameter of the microbial inhibition halo ([1]; 4000 ppm active principle) [mm]	diameter of the microbial inhibition halo ([1]; 6000 ppm active principle) [mm]	diameter of the microbial inhibition halo ([2]; 4000 ppm active principle) [mm]	diameter of the microbial inhibition halo ([2]; 6000 ppm active principle) [mm]	diameter of the microbial inhibition halo ([3]; 4000 ppm active principle) [mm]	diameter of the microbial inhibition halo ([3]; 6000 ppm active principle) [mm]	diameter of the microbial inhibition halo ([4]; 4000 ppm active principle) [mm]	diameter of the microbial inhibition halo ([4]; 6000 ppm active principle) [mm]	other results
c1ccc(-c2ccccc2)cc1 [Biphenyl]	0	0	7	8	0	0	0	0	–
Oc1ccccc1-c1ccccc1 [o-pheynl phenol]	45	47	45	45	40	42	14	15	–
imazalil sulfate [reference compound]	–	–	–	–	–	–	–	–	Phytotoxicity (number of damaged fruits) ([5]; Decana, fruit inoculated with Botrytis cinerea): 0; Phytotoxicity (number of damaged fruits) ([5]; Decana, fruit inoculated with Penicillium expansum): 0; Phytotoxicity (number of damaged fruits) ([5]; Flor de invierno, fruit inoculated with Botrytis cinerea): 0; Phytotoxicity (number of damaged fruits) ([5]; Flor de invierno, fruit inoculated with Penicillium expansum): 0; % of fruit affected (Penicillium expansum [6]; Golden Delicious): 4.3%; % of fruit affected (Penicillium expansum [6]; Red Chief): 6.2%; % of fruit affected (Botrytis cinerea [7]; Golden Delicious): 10%; % of fruit affected (Botrytis cinerea [7]; Red Chief): 12%; % of fruit affected (Penicillium expansum [8]; Decana): 4.5%; % of fruit affected (Penicillium expansum [8]; Flor de invierno): 6.7%; % of fruit affected (Botrytis cinerea [9]; Decana): 19%; % of fruit affected (Botrytis cinerea [9]; Flor de invierno): 24%; Phytotoxicity (number of damaged fruits) ([10]; Golden Delicious, fruit inoculated with Botrytis cinerea): 0; Phytotoxicity (number of damaged fruits) ([10]; Golden Delicious, fruit inoculated with Penicillium expansum): 0; Phytotoxicity (number of damaged fruits) ([10]; Red Chief, fruit inoculated with Botrytis cinerea): 0; Phytotoxicity (number of damaged fruits) ([10]; Red Chief, fruit inoculated with Penicillium expansum): 0
